Test results reported in patent publication US12152264B2, “Phosphinothricin dehydrogenase mutant, genetically engineered bacterium and one-pot multi-enzyme synchronous directed evolution method” (ZHEJIANG UNIVERSITY OF TECHNOLOGY, priority 2020, dated 2024).

Assays:
[1] = molecular target: Pseudomonas fluorescens phosphinothricin dehydrogenase (PPTDH, PfGluDH; WP_150701510.1) mutant A164G_R205K_T332A, SEQ ID No.1 (Pseudomonas azerbaijanoccidentalis, UniProt A0ABS6QXK2, A164G/R205K/T332A); type: biochemical; conditions: A164G_R205K_T332A; pH 7.0, 40° C.
[2] = molecular target: Pseudomonas fluorescens phosphinothricin dehydrogenase (PPTDH, PfGluDH; NCBI accession number WP_150701510.1), wild type (Pseudomonas azerbaijanoccidentalis, UniProt A0ABS6QXK2); assay: Determination of kinetic parameters of wild-type phosphinothricin dehydrogenase (PPO reductive amination with NADPH); conditions: pH 7.0, 40° C.

## NC(=O)C1=CN([C@@H]2O[C@H](COP(=O)(O)OP(=O)(O)OC[C@H]3O[C@@H](n4cnc5c(N)ncnc54)[C@H](OP(=O)(O)O)[C@@H]3O)[C@@H](O)[C@H]2O)C=CC1 [NADPH]
[1]
  kcat/Km^A (NADPH): 10576.11 s⁻¹ mM⁻¹
[2]
  kcat/Km^A (NADPH): 53.36 s⁻¹ mM⁻¹
